Data taken from patent publication US11415579B2, “Assay for measuring a rate of reaction between a target and a ligand candidate” (Imperial College Innovations Ltd., priority 2016, dated 2022).

What was measured:
[1] = target: T1, human cyclin-dependent kinase 2 (Cdk2) (Homo sapiens, UniProt P24941); assay: Kinetic thiol consumption assay with wild type Cdk2 (C177); format: binding; parameters: key to Rate enhancement, Cdk2 WT: k(Cdk2) divided by k(model thiol); Rate constant with Cdk2 (k(Cdk2)): unit not given here; settings: for Rate constant with Cdk2 (k(Cdk2)): 500 μM ligand, 5 μM thiol, phosphate buffer pH 8; for Rate enhancement, Cdk2 WT: no additional mutations; for Rate constant with Cdk2 WT: Protein: Cdk2, cysteine position WT, in h^-1; for k(Cdk2)/k(Cdk2_mut) rate enhancement: model thiol Cdk2[C177A, F80C, K278C]; for k(Cdk2)/k(GSH) rate enhancement: model thiol glutathione
T1 construct: poly-histidine; made in house; host or cells: E. coli
How it was run: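 Thiol 5 μM (Cdk2 or model thiol), degassed phosphate buffer pH 8, TCEP beads 2% v/v. Plates incubated 1 h RT, ex/em 380/470 nm. First-order decay fit → rate constant; ratio Cdk2/model thiol = rate enhancement.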

Cdk2(S181C) (C177A) = target: T2, Cdk2(S181C) (C177A) (Homo sapiens, UniProt P24941, C177A/S181C); assay: Kinetic thiol consumption assay with Cdk2 mutant S181C; format: binding; parameters: key to Rate enhancement, Cdk2 S181C: rate constant with Cdk2 ÷ rate constant with model thiol (fold); settings: additional mutation C177A; for Rate constant with Cdk2 S181C: Protein: Cdk2, cysteine position S181C, in h^-1
T2 construct: poly-histidine; made in house; host or cells: E. coli
How it was run: (§1)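 Read-out is fluorescence at 380/470 nm, taken after 1 h at room temperature and normalized to a DMSO/thiol-only control over time. Thiol (5 μM Cdk2 mutant or model thiol) was in degassed pH 8 phosphate buffer with 2% v/v TCEP beads. Acrylamide rate constants for Cdk2 were divided by those with model thiol.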

Cdk2[C177A, F80C, K278C] = target: T3, Cdk2[C177A, F80C, K278C] (Homo sapiens, UniProt P24941, C177A/F80C/K278C); assay: Kinetic thiol consumption assay with mutant Cdk2 as model thiol; format: binding; parameters: unit not given here; settings: 500 μM ligand, 5 μM thiol, phosphate buffer pH 8
T3 construct: poly-histidine; made in house; host or cells: E. coli
How it was run: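 First-order rate constants were derived by exponential-decay fitting of DMSO/thiol-normalized fluorescence (380/470 nm) over time at room temperature. Thiol was 5 μM E. coli-expressed His-tagged Cdk2 mutant C177A/F80C/K278C in degassed pH 8 phosphate buffer containing 2% v/v TCEP beads.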

[2] = Kinetic thiol consumption assay with model thiol glutathione; format: physicochemical; parameters: Rate constant with glutathione (k(GSH)): unit not given here; settings: for Rate constant with glutathione (k(GSH)): 500 μM ligand, 5 μM thiol, phosphate buffer pH 8; for Rate constant with Glutathione: Protein: Glutathione, cysteine position NA, in h-1
How it was run: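 Rate constants for acrylamide reaction with 5 μM glutathione come from first-order exponential fits of normalized fluorescence decay (ex 380, em 470 nm). Reactions run in degassed phosphate buffer at pH 8 containing TCEP beads, room temperature.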

Cdk2(T182C) (C177A) = target: T4, Cdk2(T182C) (C177A) (Homo sapiens, UniProt P24941, C177A/T182C); assay: Kinetic thiol consumption assay with Cdk2 mutant T182C; format: binding; parameters: key to Rate enhancement, Cdk2 T182C: rate constant with Cdk2 ÷ rate constant with model thiol (fold); settings: additional mutation C177A; for Rate constant with Cdk2 T182C: Protein: Cdk2, cysteine position T182C, in h^-1
T4 construct: poly-histidine; made in house; host or cells: E. coli
How it was run: as §1

Cdk2(R122C) (C177A) = target: T5, Cdk2(R122C) (C177A) (Homo sapiens, UniProt P24941, C177A/R122C); assay: Kinetic thiol consumption assay with Cdk2 mutant R122C; format: binding; parameters: key to Rate enhancement, Cdk2 R122C: rate constant with Cdk2 ÷ rate constant with model thiol (fold); settings: additional mutation C177A; for Rate constant with Cdk2 R122C: Protein: Cdk2, cysteine position R122C, in h-1
T5 construct: poly-histidine; made in house; host or cells: E. coli
How it was run: as §1

Cdk2(H71C) (C177A) = target: T6, Cdk2(H71C) (C177A) (Homo sapiens, UniProt P24941, C177A/H71C); assay: Kinetic thiol consumption assay with Cdk2 mutant H71C; format: binding; parameters: key to Rate enhancement, Cdk2 H71C: rate constant with Cdk2 ÷ rate constant with model thiol (fold); settings: additional mutation C177A; for Rate constant with Cdk2 H71C: Protein: Cdk2, cysteine position H71C, in h^-1
T6 construct: poly-histidine; made in house; host or cells: E. coli
How it was run: as §1

Cdk2(C177A, F80C) = target: T7, Cdk2(C177A, F80C) (Homo sapiens, UniProt P24941, C177A/F80C); assay: Kinetic thiol consumption assay with Cdk2 mutant F80C, incl. kobs versus concentration (Kd, k2); format: binding; parameters: key to Rate enhancement, Cdk2 F80C: Cdk2 rate constant divided by model-thiol rate constant; settings: additional mutation C177A; for Rate constant with Cdk2 F80C: Protein: Cdk2, cysteine position F80C, in h^-1
T7 construct: poly-histidine; made in house; host or cells: E. coli
How it was run: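 His-tagged Cdk2(C177A/F80C) from E. coli or model thiol, 5 μM in degassed phosphate buffer pH 8 with TCEP beads, reacted with acrylamide ligands; fluorescence (ex/em 380/470 nm) normalized to DMSO control and fitted to first-order decay for kobs. Kd and k2 obtained from hyperbolic fit of kobs versus ligand concentration.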

Cdk2(S276C) (C177A) = target: T8, Cdk2(S276C) (C177A) (Homo sapiens, UniProt P24941, C177A/S276C); assay: Kinetic thiol consumption assay with Cdk2 mutant S276C; format: binding; parameters: key to Rate enhancement, Cdk2 S276C: rate constant with Cdk2 ÷ rate constant with model thiol (fold); settings: additional mutation C177A; for Rate constant with Cdk2 S276C: Protein: Cdk2, cysteine position S276C, in h^-1
T8 construct: poly-histidine; made in house; host or cells: E. coli
How it was run: as §1

Cdk2(N272C) (C177A) = target: T9, Cdk2(N272C) (C177A) (Homo sapiens, UniProt P24941, C177A/N272C); assay: Kinetic thiol consumption assay with Cdk2 mutant N272C; format: binding; parameters: key to Rate enhancement, Cdk2 N272: rate constant with Cdk2 ÷ rate constant with model thiol (fold); settings: for Rate enhancement, Cdk2 N272: Cdk2 N272, additional mutation C177A; for Rate constant with Cdk2 N272C: Protein: Cdk2, cysteine position N272C, additional mutation C177A, in h^-1
T9 construct: poly-histidine; made in house; host or cells: E. coli
How it was run: as §1

SMILES: C=CC(=O)N1CCc2cc(-c3cccc(F)c3)ccc21 [CA-042]
- Rate constant with Cdk2 (k(Cdk2)) [1]: 0.04257
- Rate enhancement, Cdk2 WT [1]: 2.91
- Rate constant with Cdk2 WT [1]: 0.04257
- k(Cdk2)/k(Cdk2_mut) rate enhancement [1]: 0.3151
- k(Cdk2)/k(GSH) rate enhancement [1]: 5.157
- Rate enhancement, Cdk2 S181C (Cdk2(S181C) (C177A)): 0.3187
- Rate constant with Cdk2 S181C (Cdk2(S181C) (C177A)): 0.004663
- Rate constant with Cdk2[C177A, F80C, K278C] (k(Cdk2_mut)) (Cdk2[C177A, F80C, K278C]): 0.1351
- Rate constant with glutathione (k(GSH)) [2]: 0.00825
- Rate constant with Glutathione [2]: 0.01463
- Rate enhancement, Cdk2 T182C (Cdk2(T182C) (C177A)): 5.547
- Rate constant with Cdk2 T182C (Cdk2(T182C) (C177A)): 0.08115
- Rate enhancement, Cdk2 R122C (Cdk2(R122C) (C177A)): 0.1215
- Rate constant with Cdk2 R122C (Cdk2(R122C) (C177A)): 0.001778
- Rate enhancement, Cdk2 H71C (Cdk2(H71C) (C177A)): 0.5064
- Rate constant with Cdk2 H71C (Cdk2(H71C) (C177A)): 0.007409
- Rate enhancement, Cdk2 F80C (Cdk2(C177A, F80C)): 0.4287
- Rate constant with Cdk2 F80C (Cdk2(C177A, F80C)): 0.006272
- Rate enhancement, Cdk2 S276C (Cdk2(S276C) (C177A)): 0.5636
- Rate constant with Cdk2 S276C (Cdk2(S276C) (C177A)): 0.008245
- Rate enhancement, Cdk2 N272 (Cdk2(N272C) (C177A)): 0.09535
- Rate constant with Cdk2 N272C (Cdk2(N272C) (C177A)): 0.001395

SMILES: C=CC(=O)NCC1(NC(=O)OC(C)(C)C)CCCCC1 [EL-1143]
- Rate constant with Cdk2 (k(Cdk2)) [1]: 0.014
- Rate enhancement, Cdk2 WT [1]: 4.291
- Rate constant with Cdk2 WT [1]: 0.03792
- k(Cdk2)/k(Cdk2_mut) rate enhancement [1]: 1.746
- k(Cdk2)/k(GSH) rate enhancement [1]: 2.839
- Rate enhancement, Cdk2 S181C (Cdk2(S181C) (C177A)): 2.376
- Rate constant with Cdk2 S181C (Cdk2(S181C) (C177A)): 0.021
- Rate constant with Cdk2[C177A, F80C, K278C] (k(Cdk2_mut)) (Cdk2[C177A, F80C, K278C]): 0.00802
- Rate constant with glutathione (k(GSH)) [2]: 0.00493
- Rate constant with Glutathione [2]: 0.008837
- Rate enhancement, Cdk2 T182C (Cdk2(T182C) (C177A)): 17.17
- Rate constant with Cdk2 T182C (Cdk2(T182C) (C177A)): 0.1517
- Rate enhancement, Cdk2 R122C (Cdk2(R122C) (C177A)): 0.3144
- Rate constant with Cdk2 R122C (Cdk2(R122C) (C177A)): 0.002778
- Rate enhancement, Cdk2 H71C (Cdk2(H71C) (C177A)): 0.2745
- Rate constant with Cdk2 H71C (Cdk2(H71C) (C177A)): 0.002426
- Rate enhancement, Cdk2 F80C (Cdk2(C177A, F80C)): 1.059
- Rate constant with Cdk2 F80C (Cdk2(C177A, F80C)): 0.009355
- Rate enhancement, Cdk2 S276C (Cdk2(S276C) (C177A)): 3.446
- Rate constant with Cdk2 S276C (Cdk2(S276C) (C177A)): 0.03045
- Rate enhancement, Cdk2 N272 (Cdk2(N272C) (C177A)): 1.495
- Rate constant with Cdk2 N272C (Cdk2(N272C) (C177A)): 0.01321

SMILES: C=CC(=O)N1CC(CCN2CCCC2=O)c2ccccc21 (stereo not shown) [CA-089]
- Rate constant with Cdk2 (k(Cdk2)) [1]: 0.2034
- Rate enhancement, Cdk2 WT [1]: 4.336
- Rate constant with Cdk2 WT [1]: 0.2034
- k(Cdk2)/k(Cdk2_mut) rate enhancement [1]: 9.903
- k(Cdk2)/k(GSH) rate enhancement [1]: 4.414
- hit classification, Example 2 ([1]; significant rate enhancement against both model thiols (GSH and mutant Cdk2)): hits
- Rate enhancement, Cdk2 S181C (Cdk2(S181C) (C177A)): 0.5754
- Rate constant with Cdk2 S181C (Cdk2(S181C) (C177A)): 0.02699
- Rate constant with Cdk2[C177A, F80C, K278C] (k(Cdk2_mut)) (Cdk2[C177A, F80C, K278C]): 0.02054
- Rate constant with glutathione (k(GSH)) [2]: 0.04608
- Rate constant with Glutathione [2]: 0.04691
- Rate enhancement, Cdk2 T182C (Cdk2(T182C) (C177A)): 16.71
- Rate constant with Cdk2 T182C (Cdk2(T182C) (C177A)): 0.784
- Rate enhancement, Cdk2 R122C (Cdk2(R122C) (C177A)): 0.4622
- Rate constant with Cdk2 R122C (Cdk2(R122C) (C177A)): 0.02168
- Rate enhancement, Cdk2 H71C (Cdk2(H71C) (C177A)): 3.475
- Rate constant with Cdk2 H71C (Cdk2(H71C) (C177A)): 0.163
- Rate enhancement, Cdk2 F80C (Cdk2(C177A, F80C)): 1.909
- Rate constant with Cdk2 F80C (Cdk2(C177A, F80C)): 0.08953
- Rate enhancement, Cdk2 S276C (Cdk2(S276C) (C177A)): 3.061
- Rate constant with Cdk2 S276C (Cdk2(S276C) (C177A)): 0.1436
- Rate enhancement, Cdk2 N272 (Cdk2(N272C) (C177A)): 4.344
- Rate constant with Cdk2 N272C (Cdk2(N272C) (C177A)): 0.2038
